How the values were obtained:
[1] = test system: M1, M2 (w/Gqi5) and M3 ACh receptors stably expressed in CHO cells; assay: Calcium mobilization (FLIPR) IC50 determination for antagonists of ACh induced muscarinic receptor activation; format: cell-based, human; details: EC80 concentration of ACh, active if IC50 of between 33 uM and 10 nM or less, receptor subtype (M1/M2/M3) not specified
Source text: Calcium Mobilization Studies (FLIPR)
Studies to determine the effectiveness of antagonists to cause blockade of functional intracellular calcium fluxes following agonist (ACh) treatment of cloned human receptors.
This system is used for characterizations of antagonist-receptor interactions using four distinct variations of the FLIPR methodology: (a) potency: IC50 determination, (b) potency: pA2 determination, (c) reversibility of antagonist-receptor interaction, or (d) confirmation of no functional agonist activity. • Cell Source The human M1-M3 receptors are cloned and stably expressed in Chinese Hamster Ovary (CHO) cells. The M2 receptors are co-expressed with the chimeric G protein, Gqi5. • Cell lines: M1 stable: Biocat #1044; M2+Gqi5 stable: Biocat #95663; M3 stable: Biocat #1049 • Method of Culture: CHO-M1, CHO-Gqi5-M2 and CHO-M3 cells are cultured to confluence at 37° C. in a humidified incubator with 5% CO2/95% air. CHO-M1 and CHO-M3 are cultured in Alpha MEM with nucleosides and L-glutamine and 10% fetal calf serum. […] The emitted fluorescence from all 96 wells is measured simultaneously using a cooled CCD camera. Data points are collected every second. Maximal change in emission from each well after simultaneous addition of agonist or compound to each of the 96 wells is then exported to an excel spreadsheet. […] Experimental Protocols: • Cell plating: A microtiter plate based calcium mobilization FLIPR (Fluorometric Imaging Plate Reader, Molecular Devices, Sunnyvale Calif., [Schroeder KS, Neagle, BD. FLIPR: a new instrument for accurate, high throughput optical screening. J. Biomol. Screen. 1996; 1:75.]) assay is used for the functional characterization of compounds against M1, M2 (w/Gqi5) and M3 ACh receptors stably expressed in CHO cells. […] The basal emission fluorescence is measured, then the cellular response to an EC80 concentration of ACh (3.3 nM against M1, 10 nM against M2 and 1.0 nM against M3) prepared in KRH assay buffer with 0.1% BSA (no gelatin), is monitored in FLIPR for 90 seconds and then 50 μL of 100 μM ATP (assay concentration of 20 μM) is added to check cell viability (H. M. Sarau et al, 1999. Mol. Pharmacol. 56, 657-663). […]

melting point	SMILES	IC50: compound pretreatment concentration which inhibits 50% of the ACh induced response [1]
–	CCc1nc2c(cnn2CC)c(NC2CCOCC2)c1CNC(=O)c1cccc(C(=O)NCc2ccc(F)c(-c3cccc(CNC4CCCC4)c3)c2)c1 [Example 307, N-({3′-[(Cyclopentylamino)methyl]-6-fluoro-3-biphenylyl}methyl)-N′-{[1,6-diethyl-4-(tetrahydro-2H-pyran-4-ylamino)-1H-pyrazolo[3,4-b]pyridin-5-yl]methyl}-1,3-benzenedicarboxamide]	most active
–	CCc1nc2c(cnn2CC)c(NC2CCOCC2)c1CNCc1cccc(C(=O)NCc2ccc(F)c(-c3cccc(CN4CCNCC4)c3)c2)c1 [Example 228, 3-[({[1,6-Diethyl-4-(tetrahydro-2H-pyran-4-ylamino)-1H-pyrazolo[3,4-b]pyridin-5-yl]methyl}amino)methyl]-N-{[6-fluoro-3′-(1-piperazinylmethyl)-3-biphenylyl]methyl}benzamide]	most active
–	CCc1nc2c(cnn2CC)c(NC2CCOCC2)c1CNC(=O)c1cccc(C(=O)NCc2ccc(F)c(-c3cccc(CNc4ccncc4)c3)c2)c1 [Example 311, N-{[1,6-Diethyl-4-(tetrahydro-2H-pyran-4-ylamino)-1H-pyrazolo[3,4-b]pyridin-5-yl]methyl}-N′-({6-fluoro-3′-[(4-pyridinylamino)methyl]-3-biphenylyl}methyl)-1,3-benzenedicarboxamide]	most active
–	CCc1nc2c(cnn2CC)c(NC2CCOCC2)c1CNC(=O)c1cccc(C(=O)NCc2cc(-c3cccc(CN4CCN(C)CC4)c3)ccc2OC)c1 [Example 271, N-{[1,6-Diethyl-4-(tetrahydro-2H-pyran-4-ylamino)-1H-pyrazolo[3,4-b]pyridin-5-yl]methyl}-N′-({4-(methyloxy)-3′-[(4-methyl-1-piperazinyl)methyl]-3-biphenylyl}methyl)-1,3-benzenedicarboxamide]	most active
116 to 118 °C	CCc1nc2c(cnn2CC)c(NC2CCOCC2)c1CNC(=O)c1cccc(C(=O)NCc2cc(Cl)cc(-c3cccc(CN4CCN(C)CC4)c3)c2)c1 [Example 422, N-({5-Chloro-3′-[(4-methyl-1-piperazinyl)methyl]-3-biphenylyl}methyl)-N′-{[1,6-diethyl-4-(tetrahydro-2H-pyran-4-ylamino)-1H-pyrazolo[3,4-b]pyridin-5-yl]methyl}-1,3-benzenedicarboxamide]	–
119 to 121 °C	CCc1nc2c(cnn2CC)c(NC2CCOCC2)c1CNC(=O)c1cccc(C(=O)NCc2cc(Cl)cc(-c3cccc(CN4CCN[C@@H](C)C4)c3)c2)c1 [Example 224, N-[(5-Chloro-3′-{[(3S)-3-methyl-1-piperazinyl]methyl}-3-biphenylyl)methyl]-N′-{[1,6-diethyl-4-(tetrahydro-2H-pyran-4-ylamino)-1H-pyrazolo[3,4-b]pyridin-5-yl]methyl}-1,3-benzenedicarboxamide]	–
111 to 113 °C	CCc1nc2c(cnn2CC)c(NC2CCOCC2)c1CNC(=O)c1cccc(C(=O)NCc2cc(Cl)cc(-c3cccc(CN4CCCN(C)CC4)c3)c2)c1 [Example 428, N-({5-Chloro-3′-[(4-methylhexahydro-1H-1,4-diazepin-1-yl)methyl]-3-biphenylyl}methyl)-N′-{[1,6-diethyl-4-(tetrahydro-2H-pyran-4-ylamino)-1H-pyrazolo[3,4-b]pyridin-5-yl]methyl}-1,3-benzenedicarboxamide]	–
147 to 150 °C	CCc1nc2c(cnn2CC)c(NC2CCOCC2)c1CNC(=O)c1cccc(C(=O)NCc2ccc(F)c(-c3cccc(CN4CCNC(=O)C4)c3)c2)c1 [Example 201, N-{[1,6-Diethyl-4-(tetrahydro-2H-pyran-4-ylamino)-1H-pyrazolo[3,4-b]pyridin-5-yl]methyl}-N′-({6-fluoro-3′-[(3-oxo-1-piperazinyl)methyl]-3-biphenylyl}methyl)-1,3-benzenedicarboxamide]	–
116 to 118 °C	CCc1nc2c(cnn2CC)c(NC2CCOCC2)c1CNC(=O)c1cccc(C(=O)NCc2ccc(Cl)c(-c3cccc(CN4CCN[C@@H](C)C4)c3)c2)c1 [Example 215, N-[(6-Chloro-3′-{[(3S)-3-methyl-1-piperazinyl]methyl}-3-biphenylyl)methyl]-N′-{[1,6-diethyl-4-(tetrahydro-2H-pyran-4-ylamino)-1H-pyrazolo[3,4-b]pyridin-5-yl]methyl}-1,3-benzenedicarboxamide]	–
119 to 122 °C	CCc1nc2c(cnn2CC)c(NC2CCOCC2)c1CNC(=O)c1cccc(C(=O)NCc2cc(Cl)cc(-c3cccc(CN4CCNCC4)c3)c2)c1 [Example 424, N-{[5-Chloro-3′-(1-piperazinylmethyl)-3-biphenylyl]methyl}-N′-{[1,6-diethyl-4-(tetrahydro-2H-pyran-4-ylamino)-1H-pyrazolo[3,4-b]pyridin-5-yl]methyl}-1,3-benzenedicarboxamide]	–
119 to 123 °C	CCc1nc2c(cnn2CC)c(NC2CCOCC2)c1CNC(=O)c1cccc(C(=O)NCc2ccc(F)c(-c3cccc(CN4C[C@@H]5C[C@H]4CN5C(=O)OC(C)(C)C)c3)c2)c1	–
116 to 119 °C	CCc1nc2c(cnn2CC)c(NC2CCOCC2)c1CNC(=O)c1cccc(C(=O)NCc2ccc(OC)c(-c3cccc(CN4CCCN(C)CC4)c3)c2)c1 [Example 217, N-{[1,6-Diethyl-4-(tetrahydro-2H-pyran-4-ylamino)-1H-pyrazolo[3,4-b]pyridin-5-yl]methyl}-N′-{[3′-[(4-methylhexahydro-1H-1,4-diazepin-1-yl)methyl]-6-(methyloxy)-3-biphenylyl]methyl}-1,3-benzenedicarboxamide]	–
107 to 109 °C	CCc1nc2c(cnn2CC)c(NC2CCOCC2)c1CNC(=O)c1cccc(C(=O)NCc2ccc(C)c(-c3cccc(CN4CCCN(C)CC4)c3)c2)c1 [Example 216, N-{[1,6-Diethyl-4-(tetrahydro-2H-pyran-4-ylamino)-1H-pyrazolo[3,4-b]pyridin-5-yl]methyl}-N′-({6-methyl-3′-[(4-methylhexahydro-1H-1,4-diazepin-1-yl)methyl]-3-biphenylyl}methyl)-1,3-benzenedicarboxamide]	–
130 to 132 °C	CCc1nc2c(cnn2CC)c(NC2CCOCC2)c1CNC(=O)c1cc(C)cc(C(=O)NCc2cccc(-c3cccc(CC4CCNCC4)c3)c2)c1 [Example 426, N-{[1,6-Diethyl-4-(tetrahydro-2H-pyran-4-ylamino)-1H-pyrazolo[3,4-b]pyridin-5-yl]methyl}-5-methyl-N′-{[3′-(4-piperidinylmethyl)-3-biphenylyl]methyl}-1,3-benzenedicarboxamide]	–
117 to 120 °C	CCc1nc2c(cnn2CC)c(NC2CCOCC2)c1CNC(=O)c1cc(C)cc(C(=O)NCc2ccc(C)c(-c3cccc(C=O)c3)c2)c1	–
107 to 110 °C	CCc1nc2c(cnn2CC)c(NC2CCOCC2)c1CNC(=O)c1cc(C)cc(C(=O)NCc2ccc(F)c(-c3cccc(C=O)c3)c2)c1	–
121 to 124 °C	CCc1nc2c(cnn2CC)c(NC2CCOCC2)c1CNC(=O)c1cccc(C(=O)NCc2ccc(Cl)c(-c3cccc(CN4C[C@@H](C)N[C@@H](C)C4)c3)c2)c1 [Example 220, N-[(6-Chloro-3′-{[(3R,5S)-3,5-dimethyl-1-piperazinyl]methyl}-3-biphenylyl)methyl]-N′-{[1,6-diethyl-4-(tetrahydro-2H-pyran-4-ylamino)-1H-pyrazolo[3,4-b]pyridin-5-yl]methyl}-1,3-benzenedicarboxamide]	–

— US8067408B2, “Dual pharmacophores—PDE4-muscarinic antagonistics” (priority 2008, dated 2011)
